According to publication PMC10726355, “Small Molecule Ligands of the BET-like Bromodomain, SmBRD3, Affect Schistosoma mansoni Survival, Oviposition, and Development” (Journal of Medicinal Chemistry, 2023):
“Also recorded” adds a separate entry of the source. Read-outs that look alike come from different tables or passages of the source.

Columns and labels:
SmBRD3(1,2) = SmBRD3(1,2) (Schistosoma mansoni, UniProt A0A5K4ESD7); test: biochemical; assay type: binding; settings: for N number, binding to SmBRD3(1,2): ITC stoichiometry, n=1 ± error of curve fit
SmBRD3(2) = SmBRD3(2) (Schistosoma mansoni, UniProt A0A5K4ESD7); test: biochemical; assay type: binding; settings: for N number, binding to SmBRD3(2), Repeat 1 / N number, binding to SmBRD3(2), Repeat 2 / N number, binding to SmBRD3(2), Mean / N number, binding to SmBRD3(2), Repeat 3: ITC stoichiometry; for N number, binding to SmBRD3(2), Mean: mean of repeats
CAD solubility assay = assay type: physicochemical; settings: phosphate buffered saline, pH 7.4, phosphate buffered saline at pH 7.4; read-out: Aqueous Solubility by CAD
Procedure: A CAD solubility assay was carried out by Physchem Team, Discovery Analytical, NCE Molecular Discovery at GSK. 5 μL of 10 mM DMSO stock solution was diluted to 100 μL with pH 7.4 phosphate buffered saline, equilibrated for 1 h at room temperature, and filtered through Millipore MultiscreenHTS-PCF filter plates (MSSL BPC). The filtrate was quantified using a suitably calibrated charged aerosol detector.[45]

chromLogD assay = assay type: physicochemical; settings: reversed phase HPLC column (Gemini NX C18), pH 7.4
Procedure: Lipophilicity: a chromLogD assay was carried out by the Physchem Team, Discovery Analytical, NCE Molecular Discovery at GSK. The chromatographic hydrophobicity index (CHI)[46],[47] values were measured using reversed phase HPLC column (50 × 2 mm […] Gemini NX C18, Phenomenex, UK) with fast acetonitrile gradient at starting mobile phase of pHs 2, 7.4, or 10.5. CHI values were derived directly from the gradient retention times using calibration parameters for standard compounds. The CHI value approximates to the volume % organic concentration when the compound elutes. CHI was linearly transformed into a chromLogD[48] value by least-squares fitting of experimental CHI values to calculated cLogP values for over 20000 research compounds.

S. mansoni adult worms = test: Ex vivo adult worm screening (motility, IVLEs, pairing); set-up: species or system Schistosoma mansoni; settings: 20 μM in 0.2% DMSO; 72 h
Procedure: S. mansoni adult worms were recovered by hepatic portal vein perfusion from TO mice (Mus musculus HsdOLa:TO - Tuck Ordinary; Envigo, UK) that were percutaneously infected 7 weeks earlier with 180 cercariae.[65],[71] Following perfusion, schistosomes were washed and processed as previously described.[65],[66] Subsequently, schistosome pairs were seeded into 48 well tissue culture plates (1 worm pair/well, in duplicate) and dosed with the compounds (20 μM in 0.2% DMSO). DMSO (0.2%) and praziquantel (10 μM in 0.1% DMSO) were also included as negative and positive controls, respectively. Parasite motility was assessed by a digital image processing-based system (WormassayGP2),[66] modified after Wormassay.[72]In vitro laid eggs (IVLEs) were enumerated and the presence or absence of paired worms was noted.

S. mansoni miracidia = test: Ex vivo miracidia to sporocyst transformation screening; set-up: species or system Schistosoma mansoni; settings: 0.5-25 μM in 1% DMSO; 48 h; 26 °C
Procedure: S. mansoni miracidia were obtained by hatching of schistosome eggs as previously described.[73] The resulting miracidial suspension was collected, washed with Chernin’s balanced salt solution (CBSS),[73] and enumerated prior to being used for ex vivo miracidia to sporocyst screens as previously reported.[66],[73] Each compound was tested at 0.5, 2.0, 5.0, 10, and 25 μM final concentrations (in 1% DMSO). Each treatment was set up in duplicate (15–25 miracidia/well). Each titration was performed in three independent experiments (two technical replicates per data point). Parasites cultured in CBSS (containing 1% DMSO) were included as negative controls. After 48 h incubation at 26 °C in the dark, dead, fully transformed and partially transformed miracidia were enumerated as previously described.[74],[75]

S. mansoni schistosomula = test: Ex vivo schistosomula screening (Roboworm high content imaging); set-up: species or system Schistosoma mansoni; settings: 72 h; for EC50: Schistosoma mansoni, ethyl esters (R=Et), 95% CI in brackets
Procedure: A high-throughput imaging platform that quantifies both phenotype and motility ex vivo, was used to screen compounds against schistosomula; their effects were assessed as previously described.[20] Briefly, the schistosomula stage of S. mansoni was obtained by mechanical transformation of cercariae, dispensed into 384-well tissue culture plates, and dosed with 20 μM (Figure 7) or 10 μM (Figure S48) of each compound. Following 72 h coincubation of the schistosomula and compound, the plate was subjected to high content imaging to quantify the effects of each compound.
S. mansoni schistosomula were obtained by mechanical transformation from cercariae as previously described,[64] distributed in 384-well tissue culture plates (PerkinElmer, catalogue number 6007460) at 120 parasites/well and dosed with the selected compounds as previously reported.[65]−[68] For this study, each compound (as 10 mM DMSO stock solution) was initially tested at two concentration points (20 and 10 μM final concentration, in duplicates) in at least four independent screens (Z′ scores above 0.35).[69] Each screen contained both positive (10 μM auranofin (AUR) in 0.625% DMSO) and negative (0.625% DMSO) controls. […] Following 72 h schistosomula/compound coincubation, the plate was analyzed by the Roboworm platform.[70] EC50 values were calculated from the titrated concentrations by nonlinear regression, after log transformation of concentrations and data normalization using GraphPad Prism 7.02.

[1] = SmBRD3(1,2) Kd, ITC, n = 1 ± error of the curve fit
[2] = ITC, single run ± error of curve fit, Repeat 1
[3] = ITC, single value ± error of the curve fit or mean of 2-3 repeats ± s.e.m.
[4] = ITC, read-out: SmBRD3(2) pKd (converted)
[5] = ITC, single run ± error of curve fit, Repeat 2, read-out: SmBRD3(2) Kd, Repeat 2
[6] = read-out: SmBRD3(2) Kd, Repeat 1
[7] = ITC, single run ± error of curve fit, Repeat 3, read-out: SmBRD3(2) Kd, Repeat 3
[8] = 20 μM (Figure 7) or 10 μM (Figure S48)
[9] = read-out: Schistosomla Movement EC50
[10] = read-out: Schistosomla Phenotype EC50

Chain of SmBRD3(1,2) (A0A5K4ESD7 entry or part of it): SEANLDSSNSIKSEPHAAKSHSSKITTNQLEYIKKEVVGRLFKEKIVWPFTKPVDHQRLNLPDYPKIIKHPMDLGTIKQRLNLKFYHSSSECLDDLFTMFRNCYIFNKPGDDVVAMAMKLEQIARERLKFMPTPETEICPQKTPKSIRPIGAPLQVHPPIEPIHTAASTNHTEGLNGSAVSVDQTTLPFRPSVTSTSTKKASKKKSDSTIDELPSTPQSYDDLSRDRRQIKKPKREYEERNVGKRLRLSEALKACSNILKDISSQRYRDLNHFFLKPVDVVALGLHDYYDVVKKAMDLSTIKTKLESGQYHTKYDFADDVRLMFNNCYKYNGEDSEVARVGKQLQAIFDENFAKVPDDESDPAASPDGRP
Chain of SmBRD3(2) (A0A5K4ESD7 entry or part of it): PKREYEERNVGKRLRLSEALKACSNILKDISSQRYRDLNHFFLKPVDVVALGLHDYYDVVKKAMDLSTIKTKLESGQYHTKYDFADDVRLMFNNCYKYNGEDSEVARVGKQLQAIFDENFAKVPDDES

| SMILES | SmBRD3(2) Kd (SmBRD3(2)) | SmBRD3(2) Kd, Repeat 1 (SmBRD3(2)) | N number, binding to SmBRD3(2), Repeat 1 (SmBRD3(2); Repeat 1) | N number, binding to SmBRD3(2), Repeat 2 (SmBRD3(2); Repeat 2) | N number, binding to SmBRD3(2), Mean (SmBRD3(2)) | Kd (SmBRD3(2); [4]) [nM] | Kd (SmBRD3(2); [5]) [nM] | Kd (SmBRD3(2); read-out: SmBRD3(2) Kd) [nM] | Effect on adult worm movement (S. mansoni adult worms) | other results |
| --- | --- | --- | --- | --- | --- | --- | --- | --- | --- | --- |
| Cc1noc(C)c1-c1cc(O)cc(C(O)c2ccc(F)cc2)c1 (centres unmarked) [Compound 3, OXFBD02-F, reference compound] | – | – | – | – | – | – | – | – | – | N number, binding to SmBRD3(1,2) (SmBRD3(1,2)): 1.05 ± 3.9e-2; Kd (SmBRD3(1,2); [1]): 1750 ± 301 nM; Kd (SmBRD3(1,2); SmBRD3(1,2) pKd, ITC): 1580 nM; SmBRD3(2) Kd, Repeat 1 (SmBRD3(2); [2]): No binding; SmBRD3(2) Kd (SmBRD3(2); [3]): No detectable binding |
| CC(=O)N1c2ccc(-c3ccc(C(=O)O)cc3)cc2[C@@H](Nc2ccc3ccsc3c2)C[C@H]1C [Compound 10, 4-{(2R,4S)-1-Acetyl-4-[(1-benzothiophen-6-yl)amino]-2-methyl-1,2,3,4-tetrahydroquinolin-6-yl}benzoic Acid] | No detectable binding; also recorded: does not bind | No binding | – | – | – | – | – | – | – | SmBRD3(1,2) Kd (SmBRD3(1,2); ITC, n = 1 ± error of the curve fit): No detectable binding; solubility at 1 h (CAD solubility assay): > 259 µM; chromatographic logD (chromLogD assay): 2.83 |
| CC(=O)N1c2ccc(-c3ccc(C(=O)O)cc3)cc2[C@H](Nc2ccc3sccc3c2)C[C@@H]1C [Compound 12, 4-((2S,4R)-1-Acetyl-4-[(1-benzothiophen-5-yl)amino]-2-methyl-1,2,3,4-tetrahydroquinolin-6-yl)benzoic Acid] | – | – | 1.51 ± 1.8e-2 | 1.55 ± 1.4e-2 | 1.53 | 501 | 543 ± 60.3 | 553 ± 9.5 | – | Kd (SmBRD3(2); [6]): 562 ± 79.1 nM |
| CC(=O)N1c2ccc(-c3ccc(C(=O)O)cc3)cc2[C@H](Nc2ccc3ncsc3c2)C[C@@H]1C [Compound 14, 4-{(2S,4R)-1-Acetyl-4-[(1,3-benzothiazol-6-yl)amino]-2-methyl-1,2,3,4-tetrahydroquinolin-6-yl}benzoic acid] | – | – | 1.42 ± 2.4e-2 | 1.54 ± 0.101 | 1.48 | 1260 | 1270 ± 779 | 1180 ± 86.7 | – | N number, binding to SmBRD3(2), Repeat 3 (SmBRD3(2); Repeat 3): 1.49 ± 5.4e-2; Kd (SmBRD3(2); ITC, single run ± error of curve fit, Repeat 1, read-out: SmBRD3(2) Kd, Repeat 1): 1010 ± 160 nM; Kd (SmBRD3(2); [7]): 1270 ± 349 nM; solubility at 1 h (CAD solubility assay): ≥ 260 µM; chromatographic logD (chromLogD assay): 1.78 |
| CCOC(=O)c1ccc(-c2ccc3c(c2)[C@H](Nc2ccc4ccoc4c2)C[C@H](C)N3C(C)=O)cc1 [Compound 18, Ethyl 4-{(2S,4R)-1-Acetyl-4-[(1-benzofuran-6-yl)amino]-2-methyl-1,2,3,4-tetrahydroquinolin-6-yl}benzoate] | No binding | No binding | – | – | – | – | – | – | substantial effects | Antischistosomula activity at 10 μM (S. mansoni schistosomula): active; Effect on schistosomula motility (S. mansoni schistosomula; [8]): substantial effects; EC50 (S. mansoni schistosomula; [9]): 3920 nM; EC50 (S. mansoni schistosomula; [10]): 2430 nM |
| CCOC(=O)c1ccc(-c2ccc3c(c2)[C@H](Nc2ccc4sccc4c2)C[C@H](C)N3C(C)=O)cc1 [Compound 19] | No binding | No binding | – | – | – | – | – | – | – | – |
| Cc1noc(C)c1-c1cc(O)cc(C(O)c2cccnc2)c1 (centres unmarked) [OXFBD04 (4), OXFBD04, reference compound] | – | – | – | – | – | – | – | – | – | N number, binding to SmBRD3(1,2) (SmBRD3(1,2)): 1.39 ± 2.0e-2; Kd (SmBRD3(1,2); [1]): 2950 ± 261 nM; Kd (SmBRD3(1,2); SmBRD3(1,2) pKd, ITC): 3160 nM; SmBRD3(2) Kd, Repeat 1 (SmBRD3(2); [2]): No binding; SmBRD3(2) Kd (SmBRD3(2); [3]): No detectable binding; Effect on miracidia to sporocyst transformation (S. mansoni miracidia): modest effects |

Second part, led by results:

| SmBRD3(2) Kd (SmBRD3(2)) | SmBRD3(2) Kd, Repeat 1 (SmBRD3(2)) | N number, binding to SmBRD3(2), Repeat 1 (SmBRD3(2); Repeat 1) | N number, binding to SmBRD3(2), Repeat 2 (SmBRD3(2); Repeat 2) | N number, binding to SmBRD3(2), Mean (SmBRD3(2)) | Kd (SmBRD3(2); [4]) [nM] | Kd (SmBRD3(2); [5]) [nM] | Kd (SmBRD3(2); read-out: SmBRD3(2) Kd) [nM] | SMILES | Effect on adult worm movement (S. mansoni adult worms) | other results |
| --- | --- | --- | --- | --- | --- | --- | --- | --- | --- | --- |
| – | – | 1.54 ± 2.5e-2 | 1.49 ± 3.0e-2 | 1.52 | 1260 | 1300 ± 236 | 1180 ± 120 | CC(=O)N1c2ccc(-c3ccc(C(=O)O)cc3)cc2[C@H](Nc2ccc3ccoc3c2)C[C@@H]1C [Compound 11, 4-((2S,4R)-1-Acetyl-4-[(1-benzofuran-6-yl)amino]-2-methyl-1,2,3,4-tetrahydroquinolin-6-yl)benzoic Acid] | – | Kd (SmBRD3(2); [6]): 1060 ± 164 nM |
| – | – | 1.52 ± 2.0e-2 | 1.71 ± 1.8e-2 | 1.61 | 631 | 652 ± 78.5 | 651 ± 12.7 | CC(=O)N1c2ccc(-c3ccc(C(=O)O)cc3)cc2[C@H](Nc2ccc3[nH]ccc3c2)C[C@@H]1C [Compound 13, 4-{(2S,4R)-1-Acetyl-4-[(1H-indol-5-yl)amino]-2-methyl-1,2,3,4-tetrahydroquinolin-6-yl}benzoic Acid] | – | N number, binding to SmBRD3(2), Repeat 3 (SmBRD3(2); Repeat 3): 1.60 ± 1.6e-2; Kd (SmBRD3(2); [7]): 672 ± 76 nM; Kd (SmBRD3(2); [6]): 628 ± 94.9 nM |
| No binding | No binding | – | – | – | – | – | – | CCOC(=O)c1ccc(-c2ccc3c(c2)[C@H](Nc2ccc4ccsc4c2)C[C@H](C)N3C(C)=O)cc1 [Compound 16, Ethyl 4-{(2S,4R)-1-Acetyl-4-[(1-benzothiophen-6-yl)amino]-2-methyl-1,2,3,4-tetrahydroquinolin-6-yl}benzoate] | substantial effects | Effect on miracidia to sporocyst transformation (S. mansoni miracidia): concentration-dependent inhibition |
| No binding | No binding | – | – | – | – | – | – | CCOC(=O)c1ccc(-c2ccc3c(c2)[C@H](Nc2ccc4[nH]ccc4c2)C[C@H](C)N3C(C)=O)cc1 [Compound 20, Ethyl 4-{(2S,4R)-1-Acetyl-4-[(1H-indol-5-yl)amino]-2-methyl-1,2,3,4-tetrahydroquinolin-6-yl}benzoate] | substantial effects | Antischistosomula activity at 10 μM (S. mansoni schistosomula): active; EC50 (S. mansoni schistosomula; [9]): 1810 nM; EC50 (S. mansoni schistosomula; [10]): 2970 nM |
| No binding | No binding | – | – | – | – | – | – | CCOC(=O)c1ccc(-c2ccc3c(c2)[C@H](Nc2ccc4ncsc4c2)C[C@H](C)N3C(C)=O)cc1 [Compound 21, Ethyl 4-{(2S,4R)1-Acetyl-4-[(1,3-benzothiazol-6-yl)amino]-2-methyl-1,2,3,4-tetrahydroquinolin-6-yl}benzoate] | substantial effects | Antischistosomula activity at 10 μM (S. mansoni schistosomula): active; Effect on schistosomula motility (S. mansoni schistosomula; [8]): greatest effects; Effect on schistosomula phenotype (S. mansoni schistosomula; [8]): greatest effects; EC50 (S. mansoni schistosomula; [9]): 2850 nM; EC50 (S. mansoni schistosomula; [10]): 2140 nM |
